Test results published in patent publication US9145411B2, “Substituted amino-pyrimidine derivatives” (Asana Biosciences, LLC, priority 2012, dated 2015).

Columns and labels:
PI3Kα (wild-type) = target: T1, PI3Kα (wild-type) (Homo sapiens, UniProt P42336); assay: PI3 Kinase TR-FRET assay, PI3Kα (wild-type); type: biochemical; settings: wild-type P110/P85α, 10 μM ATP
T1 construct: made in house; host or cells: SF9 insect cells
How it was run: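 Sf9-expressed, Ni-purified p110/p85α (5 ng) with PIP2 was preincubated with compound for 60 min at room temperature in buffer with 40 mM MgCl2 and 5 mM DTT. The reaction ran 30 min at room temperature with 10 μM PIP2 and 10 μM ATP. The TR-FRET 665/615 nm ratio was used to derive IC50 from dose-response curves.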

mTOR kinase = target: T2, mTOR kinase (Homo sapiens, UniProt P42345); assay: mTOR kinase TR-FRET assay; type: biochemical; settings: 20 μM ATP
T2 construct: purchased Millipore, USA
How it was run: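 Test compounds were pre-incubated 60 min with mTOR (5 ng), then ULight-p70 S6K (Thr389) peptide (50 nM) and ATP (20 μM) were added in HEPES 50 mM pH 7.5, EGTA, MnCl2 3 mM. After 60 min at room temperature, EDTA stop and Eu-anti-phospho antibody TR-FRET (665/615 nm) gave IC50 from sigmoidal variable-slope fits.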

pAkt(T308) = assay: In-cell Western assay, pAkt(T308), PC3 cells; type: cell-based; settings: Homo sapiens, PC-3, 2 hours incubation
Method: (§1) Cells from human prostate cancer cell line PC3 (American Type Culture Collection (ATCC), Manassas, Va. 20108 USA) were seeded at an optimal density of 22,000 cell/well in 96-well plates containing Ham's F12K medium (90 μL) and incubated overnight. The compound dilutions were carried out in 100% DMSO followed by a dilution in the medium. Test compounds were added in serial dilutions to the wells and incubated for 2 hours. The cells were washed and fixed with 4% paraformaldehyde. After incubation at room temperature for 1 hour in the dark, blocking was done for 2 hours at room temperature. Primary antibodies for pAkt(S473) ([…] phosphorylated at serine 473), pAkt(T308) (Akt phosphorylated at threonine 308) and for pS6RP (S235/236) (phosphorylated at serine 235/236) (commercially available from Cell Signaling Technology®, whose protocol was followed for the in-cell western assay, were diluted to the required concentration and added to the corresponding wells followed by overnight incubation at 4° C. Eu-labeled rabbit (PE) (Perkin-Elmer USA catalog #AD0106) secondary antibody was added and incubated for 2 hours at room temperature. Delfia® enhancement solution (cat #1244-105, Perkin Elmer USA) was subsequently added to the plate before taking the reading at 615 nm with excitation wavelength of 340 nm, after which 0.5 μg/mL of Hoechst® 33258 dye (Catalog #86140-5, Sigma) was added to the plate and fluorescence emission was read at 460 nm with 355 nm excitation, to evaluate the correction factor. IC50 values were calculated using a sigmoidal dose-response curve fit in GraphPad Prism® v5 software.

pAkt(S473) = assay: In-cell Western assay, pAkt(S473), PC3 cells; type: cell-based; settings: Homo sapiens, PC-3, 2 hours incubation
Method: as §1

PC3 cells = assay: XTT assay for cell viability, PC3 cells; type: cell-based; settings: Homo sapiens, PC-3; PC3 cell proliferation, 96 hours
How it was run: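 Log-phase PC3 cells (1000/well) were seeded for 24 h, then exposed to serially diluted compounds (DMSO dilutions) for 96 h. Viability was measured by XTT dye conversion at 37 °C, with absorbance read at 465 nm. EC50 was obtained from a sigmoidal dose-response fit.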

PI3 kinase isoform β = PI3 kinase isoform β (Homo sapiens, UniProt P42338); assay: PI3 Kinase TR-FRET assay, isoform β; type: biochemical; settings: read-out: inhibition of PI3 kinase isoform β, IC50
Method: (§2) The ability of compounds of the invention to inhibit PI3K activity was determined in a homogeneous TR-FRET assay using a PI3K assay kit (Millipore, USA; cat #33-016) according to manufacturer's instructions. PI3-Kinases (isoforms α, β, γ and δ) catalyze the phosphorylation of phosphatidylinositol, PIP2 to PIP3 in the presence of ATP and Mg^2+. The PIP3 product is detected by displacement of biotin-PIP3 from an energy transfer complex consisting of Europium labeled anti-GST monoclonal antibody, a GST-tagged PH domain, biotinylated PIP3 and Streptavidin-APC. Excitation of Europium in the complex results in an energy transfer to the APC and a fluorescence emission at 665 nm. The PIP3 product displaces biotin-PIP3 from the complex resulting in a loss of energy transfer and thus a decrease in signal.
To test for the ability of compounds to inhibit the activity of PI3Kα (wild-type), exemplary compounds of formula (I) were dissolved in DMSO and directly distributed into 384-well plates at a volume of 0.5 μL. […] Fluorescence was measured at 615 and 665 nm upon excitation at 340 nm in a Victor™ V5 fluorometer (Perkin Elmer, USA). The fluorescence emission ratio at 665 to 615 nm, proportional to the kinase activity, was plotted against the compound concentration to generate dose-response curves and IC50 values were determined using GraphPad Prism® 5 software. […]

PI3 kinase isoform γ = PI3 kinase isoform γ (Homo sapiens, UniProt P48736); assay: PI3 Kinase TR-FRET assay, isoform γ; type: biochemical; settings: read-out: inhibition of PI3 kinase isoform γ, IC50
Method: as §2
(§3) To test for the ability of compounds to inhibit the activity of PI3Kα (wild-type), exemplary compounds of formula (I) were dissolved in DMSO and directly distributed into 384-well plates at a volume of 0.5 μL. 14.5 μL of P110/P85α/PIP2 mixture in buffer (obtained from the Millipore kit) containing MgCl2 (40 mM) and DTT (5 mM) was added to compound wells and incubated for 60 minutes at room temperature. P110/P85α was expressed in SF9 insect cells and purified nickel column extraction. Five ng of wild-type P110/P85α was used in the assay. The kinase reaction was started by the addition of ATP. The assay concentrations of both PIP2 and ATP were 10 μM. The reaction mixture was incubated for 30 minutes at room temperature and was terminated by the addition of stop mix and detection mix. Fluorescence was measured at 615 and 665 nm upon excitation at 340 nm in a Victor™ V5 fluorometer (Perkin Elmer, USA). The fluorescence emission ratio at 665 to 615 nm, proportional to the kinase activity, was plotted against the compound concentration to generate dose-response curves and IC50 values were determined using GraphPad Prism® 5 software.
(§4) The activity of PI3 kinase isoforms β, γ and δ were assayed in a similar manner to the assay protocol described above for PI3Kα, by substituting the appropriate p110/p85 isoform for the p110α/p85α. Compounds of formula (I) caused inhibition of PI3 kinase isoforms β, γ and δ as determined by these assays. For example, the compounds of Examples 3 and 21 each caused inhibition of PI3 kinase isoform β with IC50 values<500 nM. The compounds of Examples 3, 7, 21, 47, 48 and 49 each caused inhibition of PI3 kinase isoform γ with IC50 values<500 nM. The compounds of Example 3, 7, 47, 48, and 49 caused inhibition of PI3 kinase isoform δ with IC50 values<1 μM.

PI3Kα mutation H1047R = PI3Kα mutation H1047R (Homo sapiens, UniProt P42336, H1047R); assay: PI3 Kinase TR-FRET assay, PI3Kα mutation H1047R; type: biochemical; settings: read-out: inhibition of PI3Kα mutation H1047R, IC50
Method: as §2, §3
(§5) The activity of PI3Kα mutations H1047R and E545K were assayed in a similar manner to the assay protocol described above for PI3Kα (wild type). The compounds of formula (I) caused inhibition of PI3Kα mutations H1047R (a mutation associated with breast and gastric cancers) and E545K (a mutation associated with colorectal tumors, glioblastomas, gastric cancers, breast cancers, and lung cancers). For example, each of the compounds of Example 3, 7, 21, 47, 48 and 49 caused inhibition of each of the PI3Kα mutations H1047R and E545K with IC50 values<50 nM.

PI3Kα mutation E545K = PI3Kα mutation E545K (Homo sapiens, UniProt P42336, E545K); assay: PI3 Kinase TR-FRET assay, PI3Kα mutation E545K; type: biochemical; settings: read-out: inhibition of PI3Kα mutation E545K, IC50
Method: as §2, §3, §5

PI3 kinase isoform δ = PI3 kinase isoform δ (Homo sapiens, UniProt O00329); assay: PI3 Kinase TR-FRET assay, isoform δ; type: biochemical; settings: read-out: inhibition of PI3 kinase isoform δ, IC50
Method: as §2, §3, §4

pS6RP (S235/236) = assay: In-cell Western assay, pS6RP (S235/236), PC3 cells; type: cell-based; settings: Homo sapiens, PC-3, 2 hours incubation
Method: as §1

U87MG tumor cells = assay: In vivo efficacy study (tumor growth suppression), U87MG xenograft; settings: U87MG xenograft mice, after 12 to 14 days of dosing, 50 mg/kg qd po

T1 sequence (P42336 whole entry, species assumed): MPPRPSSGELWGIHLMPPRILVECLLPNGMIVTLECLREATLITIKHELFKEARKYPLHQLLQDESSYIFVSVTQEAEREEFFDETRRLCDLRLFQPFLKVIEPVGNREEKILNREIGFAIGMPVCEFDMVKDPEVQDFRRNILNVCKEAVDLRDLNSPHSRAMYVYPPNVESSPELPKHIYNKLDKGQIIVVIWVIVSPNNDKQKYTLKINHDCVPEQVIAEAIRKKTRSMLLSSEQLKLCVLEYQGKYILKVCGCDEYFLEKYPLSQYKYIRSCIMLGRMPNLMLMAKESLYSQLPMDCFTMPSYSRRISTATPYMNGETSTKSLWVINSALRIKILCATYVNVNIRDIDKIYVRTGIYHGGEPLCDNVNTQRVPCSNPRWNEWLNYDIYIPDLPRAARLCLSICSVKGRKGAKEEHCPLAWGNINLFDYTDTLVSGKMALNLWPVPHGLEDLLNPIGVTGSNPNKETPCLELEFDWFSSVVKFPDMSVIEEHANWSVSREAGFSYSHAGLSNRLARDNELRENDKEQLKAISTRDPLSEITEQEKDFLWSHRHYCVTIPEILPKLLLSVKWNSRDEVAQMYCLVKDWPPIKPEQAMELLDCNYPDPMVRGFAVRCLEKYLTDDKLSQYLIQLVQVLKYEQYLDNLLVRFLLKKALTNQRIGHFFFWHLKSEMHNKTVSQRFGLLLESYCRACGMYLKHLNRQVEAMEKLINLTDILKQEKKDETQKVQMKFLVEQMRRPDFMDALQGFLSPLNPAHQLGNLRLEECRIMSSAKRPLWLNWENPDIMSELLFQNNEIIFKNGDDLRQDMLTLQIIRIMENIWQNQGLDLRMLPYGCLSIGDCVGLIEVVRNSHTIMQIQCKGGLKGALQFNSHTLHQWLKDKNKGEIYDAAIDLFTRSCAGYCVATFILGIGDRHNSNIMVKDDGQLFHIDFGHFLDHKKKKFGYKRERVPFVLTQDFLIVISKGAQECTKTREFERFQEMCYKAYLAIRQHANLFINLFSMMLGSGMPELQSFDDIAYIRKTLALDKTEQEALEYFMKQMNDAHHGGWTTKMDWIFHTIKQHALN
T1 sequence (P27986 whole entry partner, species assumed): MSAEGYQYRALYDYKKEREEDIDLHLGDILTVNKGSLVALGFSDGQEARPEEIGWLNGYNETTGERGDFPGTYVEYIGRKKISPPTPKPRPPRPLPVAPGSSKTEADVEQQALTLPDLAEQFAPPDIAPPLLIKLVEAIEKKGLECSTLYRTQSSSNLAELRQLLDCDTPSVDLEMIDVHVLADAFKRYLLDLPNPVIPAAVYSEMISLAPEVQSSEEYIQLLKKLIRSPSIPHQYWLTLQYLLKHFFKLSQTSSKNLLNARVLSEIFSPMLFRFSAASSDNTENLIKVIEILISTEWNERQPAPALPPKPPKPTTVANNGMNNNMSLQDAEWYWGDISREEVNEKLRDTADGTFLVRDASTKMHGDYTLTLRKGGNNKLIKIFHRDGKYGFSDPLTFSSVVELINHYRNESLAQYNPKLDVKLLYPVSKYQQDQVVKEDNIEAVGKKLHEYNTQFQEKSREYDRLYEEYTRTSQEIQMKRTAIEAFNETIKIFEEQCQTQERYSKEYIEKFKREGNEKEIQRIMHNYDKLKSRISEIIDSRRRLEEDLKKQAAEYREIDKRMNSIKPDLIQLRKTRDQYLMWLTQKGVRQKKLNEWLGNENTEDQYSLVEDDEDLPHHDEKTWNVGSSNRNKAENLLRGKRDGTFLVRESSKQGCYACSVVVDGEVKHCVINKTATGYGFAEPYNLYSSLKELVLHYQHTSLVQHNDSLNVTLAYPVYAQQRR
PI3Kα mutation E545K, sequence (P42336 whole entry E545K): as the sequence (P42336 whole entry, species assumed) above, with E545K counted along it
PI3Kα mutation E545K, sequence (P27986 whole entry partner): as the sequence (P27986 whole entry partner, species assumed) above
PI3Kα mutation H1047R, sequence (P42336 whole entry H1047R): as the sequence (P42336 whole entry, species assumed) above, with H1047R counted along it
PI3Kα mutation H1047R, sequence (P27986 whole entry partner): as the sequence (P27986 whole entry partner, species assumed) above
PI3 kinase isoform γ, sequence (P48736 whole entry, canonical isoform): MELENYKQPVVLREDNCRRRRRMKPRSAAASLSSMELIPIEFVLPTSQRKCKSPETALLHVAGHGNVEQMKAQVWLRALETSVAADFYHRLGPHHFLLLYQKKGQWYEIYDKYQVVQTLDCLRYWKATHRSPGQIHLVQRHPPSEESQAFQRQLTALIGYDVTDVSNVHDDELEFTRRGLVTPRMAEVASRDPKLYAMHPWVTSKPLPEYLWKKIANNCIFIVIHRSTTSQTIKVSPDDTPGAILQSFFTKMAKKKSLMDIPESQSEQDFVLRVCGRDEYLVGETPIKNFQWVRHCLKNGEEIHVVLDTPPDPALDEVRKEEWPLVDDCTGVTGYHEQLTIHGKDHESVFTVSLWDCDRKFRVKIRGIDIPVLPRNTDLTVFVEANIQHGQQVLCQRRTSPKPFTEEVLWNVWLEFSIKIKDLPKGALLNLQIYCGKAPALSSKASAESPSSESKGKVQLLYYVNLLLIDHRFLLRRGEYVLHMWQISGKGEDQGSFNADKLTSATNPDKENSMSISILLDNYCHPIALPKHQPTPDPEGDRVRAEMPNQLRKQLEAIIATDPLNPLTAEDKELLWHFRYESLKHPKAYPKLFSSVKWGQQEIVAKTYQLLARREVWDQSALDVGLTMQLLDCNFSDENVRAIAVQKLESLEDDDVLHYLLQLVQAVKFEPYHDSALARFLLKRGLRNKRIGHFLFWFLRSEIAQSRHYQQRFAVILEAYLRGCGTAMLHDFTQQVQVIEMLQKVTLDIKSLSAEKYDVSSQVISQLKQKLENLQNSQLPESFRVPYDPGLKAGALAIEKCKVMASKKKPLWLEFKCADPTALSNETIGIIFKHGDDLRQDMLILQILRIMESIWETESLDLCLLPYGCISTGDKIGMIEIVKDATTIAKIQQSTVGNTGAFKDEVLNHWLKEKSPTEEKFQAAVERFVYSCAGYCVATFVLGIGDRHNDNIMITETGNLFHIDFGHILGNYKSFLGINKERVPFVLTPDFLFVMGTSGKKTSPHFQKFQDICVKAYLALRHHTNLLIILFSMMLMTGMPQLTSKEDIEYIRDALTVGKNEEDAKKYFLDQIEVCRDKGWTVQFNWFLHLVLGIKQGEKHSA
T2 sequence (P42345 1362-2549 limits assumed): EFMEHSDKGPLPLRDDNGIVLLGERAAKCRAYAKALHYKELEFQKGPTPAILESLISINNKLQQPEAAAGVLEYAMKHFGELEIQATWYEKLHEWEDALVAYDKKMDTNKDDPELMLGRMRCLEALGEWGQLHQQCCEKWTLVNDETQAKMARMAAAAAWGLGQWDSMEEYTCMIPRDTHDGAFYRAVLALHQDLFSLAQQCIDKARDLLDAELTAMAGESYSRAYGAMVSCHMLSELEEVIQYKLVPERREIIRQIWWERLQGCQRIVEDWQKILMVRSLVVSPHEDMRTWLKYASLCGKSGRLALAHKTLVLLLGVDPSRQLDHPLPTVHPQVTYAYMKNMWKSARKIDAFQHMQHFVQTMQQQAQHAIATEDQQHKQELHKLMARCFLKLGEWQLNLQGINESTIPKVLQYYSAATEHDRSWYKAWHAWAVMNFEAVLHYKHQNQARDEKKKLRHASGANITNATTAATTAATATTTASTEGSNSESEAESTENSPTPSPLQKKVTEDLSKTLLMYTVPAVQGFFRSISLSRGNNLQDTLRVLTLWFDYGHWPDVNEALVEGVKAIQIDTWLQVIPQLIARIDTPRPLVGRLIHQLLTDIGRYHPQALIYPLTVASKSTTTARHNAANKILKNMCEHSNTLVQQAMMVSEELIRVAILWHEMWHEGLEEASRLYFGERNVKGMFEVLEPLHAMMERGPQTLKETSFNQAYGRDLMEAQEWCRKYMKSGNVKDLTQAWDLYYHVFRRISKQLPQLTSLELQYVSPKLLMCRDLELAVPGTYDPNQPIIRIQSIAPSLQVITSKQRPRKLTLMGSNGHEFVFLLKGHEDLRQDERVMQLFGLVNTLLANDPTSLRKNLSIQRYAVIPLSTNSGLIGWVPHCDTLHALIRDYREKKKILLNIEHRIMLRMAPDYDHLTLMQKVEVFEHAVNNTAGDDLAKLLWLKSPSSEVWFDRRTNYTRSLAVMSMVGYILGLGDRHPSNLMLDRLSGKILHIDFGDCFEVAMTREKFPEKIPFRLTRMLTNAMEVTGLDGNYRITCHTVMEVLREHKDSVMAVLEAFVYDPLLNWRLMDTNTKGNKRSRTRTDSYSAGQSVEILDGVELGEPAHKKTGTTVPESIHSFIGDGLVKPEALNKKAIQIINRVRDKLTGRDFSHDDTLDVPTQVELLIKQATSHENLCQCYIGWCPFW

IC50 (PI3Kα (wild-type)) [nM] | IC50 (mTOR kinase) [nM] | IC50 (pAkt(T308)) [nM] | IC50 (pAkt(S473)) [nM] | IC50 (PC3 cells) [nM] | IC50 (PI3 kinase isoform β) [nM] | IC50 (PI3 kinase isoform γ) [nM] | IC50 (PI3Kα mutation H1047R) [nM] | IC50 (PI3Kα mutation E545K) [nM] | IC50 (PI3 kinase isoform δ) [nM] | IC50 (pS6RP (S235/236)) [nM] | Compound | tumor growth inhibition relative to vehicle control group (U87MG tumor cells)
< 50 | < 50 | 100 to 500 | 100 to 500 | < 100 | < 500 | < 500 | < 50 | < 50 | – | – | CS(=O)(=O)Nc1cccc(-c2cnc3c(N4CCOCC4)nc(-c4cnc(N)nc4)nc3c2)c1 [Example 21, N-(3-(2-(2-amino-pyrimidin-5-yl)-4-morpholinopyrido[3,2-d]-pyrimidin-7-yl)phenyl)-methanesulfonamide] | –
< 50 | < 50 | < 100 | – | 100 to 500 | – | < 500 | < 50 | < 50 | < 1000 | – | C[C@H](O)C(=O)Nc1cccc(-c2cnc3c(N4CCOCC4)nc(-c4cnc(N)nc4)nc3c2)c1 [Example 47, (S)-N-(3-(2-(2-amino-pyrimidin-5-yl)-4-morpholinopyrido[3,2-d]pyrimidin-7-yl)phenyl)-2-hydroxypropanamide] | –
< 50 | < 50 | 100 to 500 | – | 100 to 500 | – | < 500 | < 50 | < 50 | < 1000 | – | CC(C)(O)C(=O)Nc1cccc(-c2cnc3c(N4CCOCC4)nc(-c4cnc(N)nc4)nc3c2)c1 [Example 48, N-(3-(2-(2-amino-pyrimidin-5-yl)-4-morpholinopyrido[3,2-d]pyrimidin-7-yl)phenyl)-2-hydroxy-2-methylpropanamide] | –
< 50 | < 50 | 100 to 500 | < 100 | < 100 | – | < 500 | < 50 | < 50 | < 1000 | < 100 | CC(C)(C#N)C(=O)Nc1cccc(-c2cnc3c(N4CCOCC4)nc(-c4cnc(N)nc4)nc3c2)c1 [Example 49, N-(3-(2-(2-amino-pyrimidin-5-yl)-4-morpholinopyrido[3,2-d]pyrimidin-7-yl)phenyl)-2-cyano-2-methylpropanamide] | –
< 50 | < 50 | 100 to 500 | < 100 | 100 to 500 | – | – | – | – | – | < 100 | Cc1ccc(C(=O)Nc2cccc(-c3cnc4c(N5CCOCC5)nc(-c5cnc(N)nc5)nc4c3)c2)o1 [Example 59, N-(3-(2-(2-amino-pyrimidin-5-yl)-4-morpholinopyrido[3,2-d]pyrimidin-7-yl)phenyl)-5-methylfuran-2-carboxamide] | –
< 50 | < 50 | < 100 | 100 to 500 | < 100 | – | – | – | – | – | < 100 | CC(=O)Nc1cc(-c2cnc3c(N4CCOCC4)nc(-c4cnc(N)nc4)nc3c2)ccc1F [Example 119, N-(5-(2-(2-amino-pyrimidin-5-yl)-4-morpholinopyrido[3,2-d]-pyrimidin-7-yl)-2-fluorophenyl)acetamide] | –
– | – | – | – | – | – | – | – | – | – | – | CC(=O)OC(C)OC(=O)N(C(C)=O)c1cccc(-c2cnc3c(N4CCOCC4)nc(-c4cnc(N)nc4)nc3c2)c1 (stereo not drawn) [Example 120, 1-((acetyl(3-(2-(2-amino-pyrimidin-5-yl)-4-morpholinopyrido[3,2-d]-pyrimidin-7-yl)-phenyl)carbamoyl)oxy) ethyl acetate] | more than 70%
